Data: ChEMBL document CHEMBL5120883, “The Dawn of Allosteric BCR-ABL1 Drugs: From a Phenotypic Screening Hit to an Approved Drug” (2022)

test system: BaF3; experiment: Antiproliferative activity against mouse BaF3 cells expressing Bcr-Abl assessed as cell growth inhibition; format: functional

Structure (SMILES) | GI50
NS(=O)(=O)c1ccc(-c2cc(Nc3ccc(OC(F)(F)F)cc3)ncn2)cc1 | 120 nM
FC(F)(F)Oc1ccc(Nc2cc(-c3cn[nH]c3)ncn2)cc1 | 90 nM
FC(F)(F)Oc1ccc(Nc2cc(-c3ccc4[nH]ccc4c3)ncn2)cc1 | 290 nM

The remaining lines, values ahead:

GI50 | Structure (SMILES)
920 nM | FC(F)(F)c1ccc(Nc2cc(NCCN3CCOCC3)ncn2)cc1
720 nM | FC(F)(F)Oc1ccc(Nc2cc(NCCN3CCOCC3)ncn2)cc1
720 nM | FC(F)(F)Oc1cccc(Nc2cc(NCCN3CCOCC3)ncn2)c1
